According to US10344034B2, “Pyrazolopyrimidone or Pyrrolotriazone derivatives, method of preparing same, and pharmaceutical applications thereof” (Shanghai Hengrui Pharmaceutical Co., Ltd., priority 2013, dated 2019):
Read-outs that look alike come from different tables or passages of the source.

Key:
[1] = In vivo pharmacodynamics test in rabbit endometriosis model; conditions: female, New Zealand, rabbit, in vivo, po
Experimental: (§1) Fifteen (15) healthy New Zealand rabbits (female) were evenly designated into 3 groups.
(§2) Rabbits were adaptive fed and quarantined for seven days, and subcutaneously injected with 30 μg/kg of estradiol benzoate once daily for two days before surgery. When the model was established, rabbits were anesthetized with 3% sodium pentobarbital, and laparotomized sterilely. Then, one side of the uterus was separated and ligated with the uterine mesorectum vessel. Then, a section of the uterus was cut off and put into a warm saline dish, and then dissected longitudinally and the myometrium and endometrium were separated. A section of endometrium (about 0.5 cm by0.5 cm) was seamed to the abdominal wall rich in blood vessels with the intimal surface facing toward the abdominal cavity. Three weeks after endometrium planting, the rabbits were laparotomized to check graft intimal size. […] Each group was administered by oral gavage once a day in a volume of 5 ml/kg, continuously for 28 days after successful modeling. Ultimately, the rabbit was weighed and the volume of ectopic endometrium was measured to evaluate the effect of the present compound on the endometrial activity.

[2] = test system: rabbit endometriosis model; assay: as above
Experimental: as §1, §2

[3] = Seven-day toxicokinetic evaluation in rats; design: species or system SD rats; conditions: rat, in vivo; for AUC(0-inf): AUC0-∞; for MRT inf: MRT0-∞
Experimental: Test Example 8. Seven-Day Toxicokinetic Evaluation of the Compound of Example 11 in Rats
SD rats were used as test animals. The plasma concentration at various times was determined by LC/MS/MS after administration of the compound of Example 11 (SHR147280) by oral gavage for 7 days. The compound toxicity in rodents was preliminarily assessed according to the potential toxicity reaction and severity level of the body.
Twenty-four (24) healthy adult SD rats (half female and half male) were evenly designated into 4 groups (6 for each group). The animals were purchased from Shanghai SLAC Laboratory Animal Corp. Ltd (laboratory animal production Certificate No. SCXK (HU) 2012-0002).
An appropriate amount of sample was accurately weighed, and added with some 0.5% CMC-Na to form an uniform suspension upon ultrasonicator grinding treatment, and then diluted to the final volume. The test sample solutions on day 1 and day 7 were kept for the determination of administration concentration of toxicokinetics.
Repeat oral doses were 80, 240, and 720 mg/kg, and administration concentrations were 8, 24, and 72 mg/ml respectively. The dosing volume was 10 ml/kg once daily for 7 days.
The blood was sampled on day 1 and day 7 after administration with sampling time before, and 1, 2, 4, 8 and 24 hours after oral administration on day 1, as well as before, and 1, 2, 4, 8, 24 and 48 hours after oral administration on day 7. The blood sample was collected in a heparinized test tube, and centrifuged to separate the plasma, which was stored at −20° C. The content of the test compound in the plasma of rats after administration of the compound by oral gavage was determined by LC/MS/MS.

[4] = target: rabbit GnRHr (Oryctolagus cuniculus, UniProt Q5U7L3); assay: Rabbit GnRHr inhibitory activity assay, rabbit GnRHr/CHO stably transfected cell lines; format: cell-based; conditions: rabbit GnRHr/CHO cells, GnRH polypeptide stimulant, Fluo-4
Experimental: Test Example 3. Rabbit GnRHr Inhibitory Activity Assay of the Present Compounds
This assay was used to determine the inhibition effect of the present compounds on the activity of rabbit GnRHr protein expressed by rabbit GnRHr/CHO stably transfected cell lines.
A mammalian expression vector containing the rabbit GnRHr gene was transferred into CHO cells by adding Lipofectamine® LTX reagent containing Plus™. Antibiotics were added the next day for screening to pick out the monoclonal cell lines.
The rabbit GnRHr/CHO stably transfected cell lines were inoculated in 96-well plates with an inoculation density of 25,000 cells/well. The culture medium was removed the next day, and loading buffer containing Fluo-4 dye was added to the plate (100 μL/well) and incubated for 30 minutes at 37° C. The plate was moved to room temperature and equilibrated for 10 minutes. Each compound was diluted with DMSO to seven concentration gradients of 100 μM, 10 μM, 1 μM, 0.1 μM, 0.01 μM, 0.001 μM, 0.0001 μM. Then, 1 μl of each gradient was added to each well and incubated for 10 minutes at room temperature. After automated addition of 50 μL of GnRH polypeptide stimulant solution, the value was immediately detected at 494/516n M by a microplate reader (flexstation 3). IC50 values of the compounds were calculated by software from different fluorescence signals at various corresponding concentrations.
The inhibitory activity of the present compounds on rabbit GnRHr was determined by the above assay, and IC50 values are shown in Table 1.

[5] = Beagle pharmacokinetics assay; format: in vivo, beagles; conditions: for AUC: read-out: Area under curve AUC; for half-life: read-out: Half-life T1/2 (converted); for MRT: read-out: Residence time MRT
Experimental: Test Example 6. Beagle Pharmacokinetics Assay of Example 11 of the Present Invention
Beagles were used as test animals. The plasma concentrations at various times were determined by LC/MS/MS after intragastric administration of the compound of Example 11, and intravenous administration of the compound of Example 11 to beagles. The pharmacokinetic behavior of the present compound in beagles was studied, and the pharmacokinetic features were evaluated.
Eight (8) healthy beagles (half female and half male) were evenly designated into 2 groups. The animals were purchased from SuzhouXishan Zhongke Laboratory Animal Corp. Ltd.
An appropriate amount of sample was weighed, and added with 0.5% CMC-Na to form a 1.0 mg/ml suspension upon ultrasonic treatment;
Appropriate amounts of drugs were weighed, and dissolved with 5 ml DMSO and 5 ml of Tween 80. Saline solution was added to the final volume.
Eight (8) healthy beagles (half female and half male) were evenly designated into 2 groups, and administered by oral gavage or intravenous injection (i.v.) (oral gavage at a dosage of 5 mg/kg with an administration volume of 5 ml/kg, and i.v. at a dosage of 2 mg/kg with an administration volume of 2 ml/kg) after fasting overnight.
1.0 ml of blood was sampled from the foreleg vein before, and 0.25, 0.5, 1, 2, 4, 6, 8, 12, and 24 hours after oral administration, collected in a heparinized test tube, and centrifuged at 3500 rpm for 10 minutes to separate the plasma, which was stored at −20° C. The animals were allowed access to feed 2 hours after administration. Blood was sampled before, and 5 minutes, 0.25, 0.5, 1, 2, 4, 6, 8, 12, and 24 hours after intravenous administration, and treated the same as above. The content of the test compound in the plasma of beagles after administration of the compound by oral gavage and intravenous injection was determined by LC/MS/MS.

[6] = both sexes, dog, plasma, iv, i.v. 2 mg/kg
[7] = both sexes, dog, plasma, oral 5 mg/kg

Sequence of rabbit GnRHr (Q5U7L3 1-328): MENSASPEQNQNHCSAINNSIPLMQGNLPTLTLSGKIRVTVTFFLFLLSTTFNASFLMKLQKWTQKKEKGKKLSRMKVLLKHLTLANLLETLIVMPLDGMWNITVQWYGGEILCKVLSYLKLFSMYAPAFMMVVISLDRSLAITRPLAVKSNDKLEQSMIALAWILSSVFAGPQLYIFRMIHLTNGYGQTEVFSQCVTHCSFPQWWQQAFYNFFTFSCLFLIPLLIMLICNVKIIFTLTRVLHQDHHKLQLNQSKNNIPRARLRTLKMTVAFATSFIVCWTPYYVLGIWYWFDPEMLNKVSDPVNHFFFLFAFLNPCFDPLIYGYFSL

Structure (SMILES): CONC(=O)Nc1ccc(-n2nc3c(c2CN(C)C)c(=O)n(-c2ccc(OC)nn2)c(=O)n3Cc2c(F)cccc2F)cc1 [Example 11, 1-(4-(7-(2,6-difluorobenzyl)-3-((dimethylamino)methyl)-5-(6-methoxypyridazin-3-yl)-4,6-dioxo-4,5,6,7-tetrahydro-2H-pyrazolo[3,4-d]pyrimidin-2-yl)phenyl)-3-methoxyurea]
- NOAEL at 28 days [1]: 30 mg/kg
- inhibition for the ectopic endometrial volume ([2]; 10 mg/kg oral once a day for 4 weeks): not obvious
- growth of ectopic endometrium ([2]; 30 mg/kg oral once a day for 4 weeks, vs 0.5% CMC-Na control): significantly inhibited
- NOAEL at 7 days ([3]; both sexes, SD, po): 240 mg/kg
- lethal dose ([3]; both, SD, po, 7 days): 720 mg/kg
- CLz/F ([3]; female, SD, 80 mg/kg): 7.71 mL/min/kg
- CLz/F ([3]; female, SD, 240 mg/kg): 5.82 mL/min/kg
- AUC0-t ([3]; female, SD, po, 80 mg/kg): 282.074 µg·h/mL
- AUC0-∞ ([3]; female, SD, po, 80 mg/kg): 313.468 µg·h/mL
- Cmax ([3]; female, SD, po, 80 mg/kg): 19550 ng/mL
- MRT0-∞ ([3]; female, SD, po, 80 mg/kg): 9.23 h
- Vd/F ([3]; female, SD, po, 80 mg/kg): 2.09 L/kg
- AUC0-t ([3]; female, SD, po, 80 mg/kg, AUC0-t): 173 µg·h/mL
- AUC(0-inf) ([3]; female, SD, po, 80 mg/kg): 174 µg·h/mL
- Cmax ([3]; female, SD, po, 80 mg/kg, Cmax): 17800 ng/mL
- MRT inf ([3]; female, SD, po, 80 mg/kg): 5.82 h
- AUC0-t ([3]; female, SD, po, 240 mg/kg): 790.873 µg·h/mL
- AUC0-∞ ([3]; female, SD, po, 240 mg/kg): 840.45 µg·h/mL
- Cmax ([3]; female, SD, po, 240 mg/kg): 51150 ng/mL
- MRT0-∞ ([3]; female, SD, po, 240 mg/kg): 7.97 h
- Vd/F ([3]; female, SD, po, 240 mg/kg): 2.87 L/kg
- t1/2 ([3]; female, SD, po, 240 mg/kg): 4.26 h
- tmax ([3]; female, SD, po, 240 mg/kg): 6.0 h
- AUC0-t ([3]; female, SD, po, 240 mg/kg, AUC0-t): 639 µg·h/mL
- AUC(0-inf) ([3]; female, SD, po, 240 mg/kg): 690 µg·h/mL
- Cmax ([3]; female, SD, po, 240 mg/kg, Cmax): 41500 ng/mL
- MRT inf ([3]; female, SD, po, 240 mg/kg): 9.63 h
- half-life ([3]; female, SD, po, 240 mg/kg, t1/2): 5.73 h
- tmax ([3]; female, SD, po, 240 mg/kg, tmax): 8 h
- AUC0-t ([3]; female, SD, po, 720 mg/kg): 2838.65 µg·h/mL
- Cmax ([3]; female, SD, po, 720 mg/kg): 138000 ng/mL
- tmax ([3]; female, SD, po, 720 mg/kg): 24.0 h
- AUC0-t ([3]; female, SD, po, 720 mg/kg, AUC0-t): 1550 µg·h/mL
- Cmax ([3]; female, SD, po, 720 mg/kg, Cmax): 69300 ng/mL
- tmax ([3]; female, SD, po, 720 mg/kg, tmax): 16 h
- potential toxic target organs ([3]; po): marrow hematopoietic system, thymus, heart, liver, lung, spleen, adrenal gland, ovary, and digestion system
- IC50 [4]: 570 pM
- AUC [5, 6]: 2.3 ± 0.213 µg·h/mL
- half-life [5, 6]: 3.34 ± 0.4 h
- MRT [5, 6]: 4.02 ± 0.5 h
- Vd/F ([5]; both sexes, dog, plasma, oral 5 mg/kg, read-out: Apparent volume of distribution Vz/F): 7.25 ± 4.37 L/kg
- AUC [5, 7]: 5.94 ± 1.34 µg·h/mL
- CL/F ([5]; both sexes, dog, plasma, oral 5 mg/kg, read-out: Clearance rate CL/F): 14.7 ± 4.2 mL/min/kg
- half-life [5, 7]: 5.37 ± 1.52 h
- Cmax ([5]; both sexes, dog, plasma, oral 5 mg/kg, read-out: Plasma concentration Cmax): 1090 ± 350 ng/mL
- MRT [5, 7]: 6.4 ± 2.82 h
- Apparent volume of distribution Vz/F ([5]; i.v. 2 mg/kg): 4.235 ± 0.706 L/kg
- Clearance rate CL/F ([5]; i.v. 2 mg/kg): 14.6 ± 1.3 mL/min/kg
